From publication PMC7717565, “Structure of the Lifeact–F-actin complex” (PLoS Biology, 2020)
Where no end group is shown, it is not given here.

Tests used:
[1] = tested on: ExoY-MBP binding to F-actin; assay: Competition cosedimentation of F-actin with ExoY-MBP; set-up: species or system Pseudomonas aeruginosa ExoY; rabbit actin; conditions: for fraction of ExoY cosedimented with F-actin: Lifeact 300 uM, F-actin 1 μM, ExoY-MBP 1 μM
[2] = tested on: human tropomyosin alpha-1 binding to F-actin; assay: Competition cosedimentation of F-actin with tropomyosin; conditions: Lifeact 100 uM, F-actin 3 μM, tropomyosin 3 μM
Description: (§1) An aliquot of freshly thawed G-actin was centrifuged at 150,000 g using a TLA-55 rotor for 30 minutes at 4°C to remove possible aggregates. Then, actin was polymerized by incubation in F-buffer (120 mM KCl, 20 mM Tris pH 8, 2 mM MgCl2, 1 mM DTT, and 1 mM ATP) for 2 hours at room temperature or overnight at 4°C. For the cosedimentation experiments with myosin and tropomyosin, a 2-fold molar excess of phalloidin was added after the polymerization. Then, the actin filaments were pelleted using a TLA-55 rotor at 150,000 g for 30 minutes and resuspended in the following buffers: F-buffer was used for cosedimentations with tropomyosin or Lifeact–mCherry fusion proteins; 20 mM HEPES pH 6.5, 50 mM KCl, and 2 mM MgCl2 was used for cosedimentations with cofilin; and 120 mM KCl, 20 mM Tris pH 8, 2 mM MgCl2, and 1 mM DTT was used for cosedimentations with myosin.
(§2) For the competition assays, Lifeact peptide was added to the mixture at the specified concentrations. […] The Kd values were calculated as previously described using GraphPad Prism software (GraphPad Software, USA) [34].
(§3) Representative gels are shown. […] The error bars correspond to standard deviations of 3 independent experiments.

F-actin [3] = target: F-actin (Oryctolagus cuniculus, UniProt P68135); assay: Cosedimentation of Lifeact–mCherry with F-actin; type: binding, Rabbit (skeletal muscle α-actin); set-up: Bmax Value: unit not given here
TccC3HVR = assay: ADP-ribosylation of actin by TccC3HVR; type: biochemical, Photorhabdus luminescens; conditions: for ADP-ribosylation level of actin (0 uM Lifeact = 1): Lifeact 100 uM, pH 8, 10 min 37°C
[4] = tested on: human cofilin-1 binding to F-actin; assay: Competition cosedimentation of F-actin with cofilin-1; conditions: Lifeact 100 uM, F-actin 4 μM, cofilin-1 4 μM, pH 6.5
Description: as §1, §2, §3

[5] = tested on: motor domain of human NM2C binding to F-actin; assay: Competition cosedimentation of F-actin with NM2C motor domain; conditions: for fraction of myosin cosedimented with F-actin: Lifeact 100 uM, F-actin 0.2 μM, NM2C 0.2 μM, pH 8
Description: The motor domain of nonmuscular myosin-2C (MYH14, isoform 2 from Homo sapiens) consisting of amino acids 1–799 was purified as described previously [32]
Then, actin was polymerized by incubation in F-buffer (120 mM KCl, 20 mM Tris pH 8, 2 mM MgCl2, 1 mM DTT, and 1 mM ATP) for 2 hours at room temperature or overnight at 4°C. For the cosedimentation experiments with myosin and tropomyosin, a 2-fold molar excess of phalloidin was added after the polymerization. Then, the actin filaments were pelleted using a TLA-55 rotor at 150,000 g for 30 minutes and resuspended in the following buffers: F-buffer was used for cosedimentations with tropomyosin or Lifeact–mCherry fusion proteins; 20 mM HEPES pH 6.5, 50 mM KCl, and 2 mM MgCl2 was used for cosedimentations with cofilin; and 120 mM KCl, 20 mM Tris pH 8, 2 mM MgCl2, and 1 mM DTT was used for cosedimentations with myosin.
as §2
The error bars correspond to standard deviations of 3 independent experiments.

[6] = tested on: F-actin in yeast cells, actin D25Y/D222G; type: cell-based, Saccharomyces cerevisiae; conditions: confocal microscopy, Fig 2C, endogenous actin replaced with D25Y variant
[7] = tested on: F-actin in yeast cells, actin L349M; type: cell-based, Saccharomyces cerevisiae; conditions: confocal microscopy, Fig 2C, endogenous actin replaced with L349M variant
[8] = tested on: F-actin in yeast cells, WT actin; type: cell-based, Saccharomyces cerevisiae; conditions: for weighted colocalization coefficient of phalloidin with Lifeact–mCherry: native ABP140 promoter, fixed cells, ActinGreen 488, Fig 2B, mean of 15 cells from 2 independent experiments
[9] = tested on: HEK 293T cells intoxicated with PTC3; assay: Intoxication competition assay with PTC3 in HEK 293T cells (cell area); type: cell-based, human; conditions: 300 pM PTC3, 5 h, mCherry fusion expressed
F-actin [10] = conditions: ref [5],[6]; cited from earlier work
Source text: Phalloidin and jasplakinolide are cyclic peptides derived from the death cap mushroom Amanita phalloides and marine sponge Jaspis johnstoni, respectively. They bind specifically to filamentous actin (F-actin), and when fused to a fluorescent probe, their derivatives allow visualization of the cell cytoskeleton by fluorescence microscopy. […] Recent electron cryo-microscopy (cryo-EM) studies from our group and others have uncovered h ...

[11] = tested on: F-actin-rich patch in yeast cells; type: cell-based, Saccharomyces cerevisiae; conditions: Fig 3D
[12] = tested on: F-actin-rich patch in yeast cells; type: cell-based, Saccharomyces cerevisiae; conditions: Fig 3E

Q: Which “effect on ExoY binding to F-actin” value ([1]; Fig 5A, 5B) does the source give for “F10A Lifeact: Lifeact F10A mutant peptide, which only binds weakly to F-actin (MGVADLIKKAESISKEE)” here?
A: did not impair formation of the ExoY-F-actin complex

Q: And the “fraction of ExoY cosedimented with F-actin” value (from here on “fraction of ExoY cosedimented”) ([1]; 1st repeat)?
A: 0.8832

Q: What about the “fraction of ExoY cosedimented” value ([1]; 2nd repeat) of the same substance?
A: 0.8982

Q: What about the “fraction of ExoY cosedimented” value ([1]; 3rd repeat) of the same substance?
A: 0.9357

Q: What about the “fraction of ExoY cosedimented” value ([1]; mean of 3) of the same substance?
A: 0.9057

Q: What about the “fraction of tropomyosin cosedimented with F-actin” value ([2]; 1st repeat) of the same substance?
A: 0.4801

Q: And the “fraction of tropomyosin cosedimented with F-actin” value ([2]; 2nd repeat)?
A: 0.5601

Q: What about the “fraction of tropomyosin cosedimented with F-actin” value ([2]; 3rd repeat) of the same substance?
A: 0.4901

Q: What about the “fraction of tropomyosin cosedimented with F-actin” value ([2]; mean of 3) of the same substance?
A: 0.5101

Q: And the “binding to F-actin” value (F-actin [3]; in words, no value)?
A: only binds weakly to F-actin

Q: What about the “effect on the level of ADP-ribosylation” value (TccC3HVR; 100 μM, control reaction) of the same substance?
A: did not decrease the level of ADP-ribosylation at all

Q: What about the “ADP-ribosylation level of actin (0 uM Lifeact = 1)” value (from here on “ADP-ribosylation level of actin”) (TccC3HVR; 1st repeat) of the same substance?
A: 1.142

Q: And the “ADP-ribosylation level of actin” value (TccC3HVR; 2nd repeat)?
A: 1.587

Q: What about the “ADP-ribosylation level of actin” value (TccC3HVR; 3rd repeat) of the same substance?
A: 0.8227

Q: And the “ADP-ribosylation level of actin” value (TccC3HVR; mean of 3)?
A: 1.184

Q: What about the “fraction of cofilin cosedimented with F-actin” value ([4]; 1st repeat) of the same substance?
A: 0.5246

Q: What about the “fraction of cofilin cosedimented with F-actin” value ([4]; 2nd repeat) of the same substance?
A: 0.4576

Q: And the “fraction of cofilin cosedimented with F-actin” value ([4]; 3rd repeat)?
A: 0.5496

Q: And the “fraction of cofilin cosedimented with F-actin” value ([4]; mean of 3)?
A: 0.5106

Q: And the “effect on myosin binding to F-actin” value ([5]; Fig 4B, 4C)?
A: nor could F10A Lifeact compete with cofilin-1 or NM2C

Q: What about the “fraction of myosin cosedimented with F-actin” value ([5]; 1st repeat) of the same substance?
A: 0.8484

Q: And the “fraction of myosin cosedimented with F-actin” value ([5]; 2nd repeat)?
A: 0.9522

Q: What about the “fraction of myosin cosedimented with F-actin” value ([5]; 3rd repeat) of the same substance?
A: 0.8926

Q: What about the “fraction of myosin cosedimented with F-actin” value ([5]; mean of 3) of the same substance?
A: 0.8977

Q: With “WT Lifeact–mCherry: wild-type Lifeact fused to mCherry [reference compound]” as the substance, how does the “factor of decrease of the level of ADP ribosylation” value (TccC3HVR; 3 μM) read?
A: 2

Q: What about the “actin-rich structures stained by Lifeact–mCherry” value [6] of the same substance?
A: absent

Q: What about the “actin-rich structures stained by Lifeact–mCherry” value [7] of the same substance?
A: absent

Q: What about the “actin-rich structures (patches, cables, contractile rings) stained by Lifeact–mCherry” value ([8]; confocal microscopy, Fig 2A) of the same substance?
A: typical actin-rich assemblies such as patches, cables, and contractile rings

Q: And the “weighted colocalization coefficient of phalloidin with Lifeact–mCherry” value [8]?
A: 0.9009

Q: And the “effect on PTC3/TccC3HVR toxicity (cytoskeletal collapse, shrinkage)” value [9]?
A: significantly reduced

Q: For jasplakinolide, which “effect on F-actin” value (F-actin [10]) is on record?
A: strongly stabilize F-actin

Q: For Phalloidin, which “effect on F-actin” value (F-actin [10]) is on record?
A: strongly stabilize F-actin

Q: Which results are given for “E17K: Lifeact E17K variant fused to mCherry (MGVADLIKKFESISKEK; also: fused to mCherry, His tag, end not given here)”?
A: change of average Lifeact–mCherry to phalloidin signal ratio vs WT [11]: insignificant increase; Bmax Value (F-actin [3]; 3 μM Lifeact–mCherry, F-buffer pH 8, fit value, Std dev in next column): 0.9222; Kd (F-actin [3]; 3 μM Lifeact–mCherry, F-buffer pH 8, full-precision fit value, Std dev in next column, unit as printed in Fig 3C): 8.08 µM; change of average patch to background signal ratio vs WT [12]: insignificant increase; staining of actin-rich structures compared with WT ([8]; confocal microscopy, Fig 2A): stained actin-rich structures in a similar way as WT Lifeact; weighted colocalization coefficient of phalloidin with Lifeact–mCherry [8]: 0.8293; effect on PTC3/TccC3HVR toxicity (cytoskeletal collapse, shrinkage) [9]: significantly reduced
